How the values were obtained:
PAK4 = biological target: T1, PAK4 (Homo sapiens, UniProt O96013); experiment: Kinobeads full dose-response competition binding: PAK4; conditions: Gene Name PAK4; for Relative Intensity 0.3nM: 0.3nM compound; for Relative Intensity 0.3nM / Relative Intensity 1nM / Relative Intensity 3nM / Relative Intensity 10nM / Relative Intensity 30nM / Relative Intensity 100nM / Relative Intensity 300nM / Relative Intensity 1000nM: DMSO = 1; for Relative Intensity 1nM: 1nM compound; for Relative Intensity 3nM: 3nM compound; for Relative Intensity 10nM: 10nM compound; for Relative Intensity 30nM: 30nM compound; for Relative Intensity 100nM: 100nM compound; for Relative Intensity 300nM: 300nM compound; for Relative Intensity 1000nM: 1000nM compound
T1 construct: a mixture of lysates from five cancer cell lines; endogenous in cells
T1 sequence (O96013 whole entry): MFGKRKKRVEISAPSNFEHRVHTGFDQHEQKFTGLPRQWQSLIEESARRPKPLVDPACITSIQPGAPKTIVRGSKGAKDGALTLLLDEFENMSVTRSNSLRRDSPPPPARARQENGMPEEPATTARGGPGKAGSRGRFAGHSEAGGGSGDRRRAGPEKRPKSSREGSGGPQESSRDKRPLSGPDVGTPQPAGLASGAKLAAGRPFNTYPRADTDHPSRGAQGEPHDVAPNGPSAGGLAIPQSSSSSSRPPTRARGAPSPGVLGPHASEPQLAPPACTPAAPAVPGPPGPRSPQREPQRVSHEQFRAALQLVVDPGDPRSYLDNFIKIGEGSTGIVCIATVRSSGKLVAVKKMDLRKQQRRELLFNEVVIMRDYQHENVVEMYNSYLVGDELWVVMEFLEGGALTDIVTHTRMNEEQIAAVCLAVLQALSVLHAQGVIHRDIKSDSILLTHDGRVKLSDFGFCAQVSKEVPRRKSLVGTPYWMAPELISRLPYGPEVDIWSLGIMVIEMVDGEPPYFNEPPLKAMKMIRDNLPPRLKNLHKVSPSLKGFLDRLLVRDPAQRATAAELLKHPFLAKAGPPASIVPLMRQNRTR

GSK3A = biological target: T2, GSK3A (Homo sapiens, UniProt P49840); experiment: Kinobeads full dose-response competition binding: GSK3A; conditions: Gene Name GSK3A; for Relative Intensity 0.3nM: 0.3nM compound; for Relative Intensity 0.3nM / Relative Intensity 1nM / Relative Intensity 3nM / Relative Intensity 10nM / Relative Intensity 30nM / Relative Intensity 100nM / Relative Intensity 300nM / Relative Intensity 1000nM: DMSO = 1; for Relative Intensity 1nM: 1nM compound; for Relative Intensity 3nM: 3nM compound; for Relative Intensity 10nM: 10nM compound; for Relative Intensity 30nM: 30nM compound; for Relative Intensity 100nM: 100nM compound; for Relative Intensity 300nM: 300nM compound; for Relative Intensity 1000nM: 1000nM compound; for Kd: EC50 with Correction, read-out: apparent Kd; for Kd / EC50: doses in nM; for EC50: eight-dose curve fit
T2 construct: endogenous in cells
T2 sequence (P49840 whole entry): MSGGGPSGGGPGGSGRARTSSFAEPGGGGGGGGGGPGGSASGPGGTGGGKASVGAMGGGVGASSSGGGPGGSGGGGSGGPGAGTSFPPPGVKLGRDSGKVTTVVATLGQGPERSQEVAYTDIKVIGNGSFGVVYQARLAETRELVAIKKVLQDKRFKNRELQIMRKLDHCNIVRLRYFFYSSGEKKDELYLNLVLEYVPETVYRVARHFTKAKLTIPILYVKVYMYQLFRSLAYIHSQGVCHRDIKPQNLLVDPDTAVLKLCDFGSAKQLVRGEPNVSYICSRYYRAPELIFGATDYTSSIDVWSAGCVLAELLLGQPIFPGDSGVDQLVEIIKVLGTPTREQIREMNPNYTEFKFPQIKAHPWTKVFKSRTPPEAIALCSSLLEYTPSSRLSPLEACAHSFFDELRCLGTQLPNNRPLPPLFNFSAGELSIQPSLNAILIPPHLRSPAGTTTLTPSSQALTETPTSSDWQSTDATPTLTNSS

GSK3B = biological target: T3, GSK3B (Homo sapiens, UniProt P49841); experiment: Kinobeads full dose-response competition binding: GSK3B; conditions: Gene Name GSK3B; for Relative Intensity 0.3nM: 0.3nM compound; for Relative Intensity 0.3nM / Relative Intensity 1nM / Relative Intensity 3nM / Relative Intensity 10nM / Relative Intensity 30nM / Relative Intensity 100nM / Relative Intensity 300nM / Relative Intensity 1000nM: DMSO = 1; for Relative Intensity 1nM: 1nM compound; for Relative Intensity 3nM: 3nM compound; for Relative Intensity 10nM: 10nM compound; for Relative Intensity 30nM: 30nM compound; for Relative Intensity 100nM: 100nM compound; for Relative Intensity 300nM: 300nM compound; for Relative Intensity 1000nM: 1000nM compound; for Kd: EC50 with Correction, read-out: apparent Kd; for Kd / EC50: doses in nM; for EC50: eight-dose curve fit
T3 construct: endogenous in cells
T3 sequence (P49841 whole entry): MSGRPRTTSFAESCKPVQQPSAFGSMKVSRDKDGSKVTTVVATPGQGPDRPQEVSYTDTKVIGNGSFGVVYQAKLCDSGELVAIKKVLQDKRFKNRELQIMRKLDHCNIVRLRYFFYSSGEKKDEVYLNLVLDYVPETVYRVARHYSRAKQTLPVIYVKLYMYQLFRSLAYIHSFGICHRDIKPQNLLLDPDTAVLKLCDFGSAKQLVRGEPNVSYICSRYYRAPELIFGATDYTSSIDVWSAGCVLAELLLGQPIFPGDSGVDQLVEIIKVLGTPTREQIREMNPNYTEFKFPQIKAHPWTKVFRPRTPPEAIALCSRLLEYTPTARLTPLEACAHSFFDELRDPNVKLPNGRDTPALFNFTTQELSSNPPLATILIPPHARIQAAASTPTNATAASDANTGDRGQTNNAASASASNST

LATS1 = biological target: T4, LATS1 (Homo sapiens, UniProt O95835); experiment: Kinobeads full dose-response competition binding: LATS1; conditions: Gene Name LATS1; for Relative Intensity 0.3nM: 0.3nM compound; for Relative Intensity 0.3nM / Relative Intensity 1nM / Relative Intensity 3nM / Relative Intensity 10nM / Relative Intensity 30nM / Relative Intensity 100nM / Relative Intensity 300nM / Relative Intensity 1000nM: DMSO = 1; for Relative Intensity 1nM: 1nM compound; for Relative Intensity 3nM: 3nM compound; for Relative Intensity 10nM: 10nM compound; for Relative Intensity 30nM: 30nM compound; for Relative Intensity 100nM: 100nM compound; for Relative Intensity 300nM: 300nM compound; for Relative Intensity 1000nM: 1000nM compound; for Kd: EC50 with Correction, read-out: apparent Kd; for Kd / EC50: doses in nM; for EC50: eight-dose curve fit
T4 construct: endogenous in cells
T4 sequence (O95835 1-1130): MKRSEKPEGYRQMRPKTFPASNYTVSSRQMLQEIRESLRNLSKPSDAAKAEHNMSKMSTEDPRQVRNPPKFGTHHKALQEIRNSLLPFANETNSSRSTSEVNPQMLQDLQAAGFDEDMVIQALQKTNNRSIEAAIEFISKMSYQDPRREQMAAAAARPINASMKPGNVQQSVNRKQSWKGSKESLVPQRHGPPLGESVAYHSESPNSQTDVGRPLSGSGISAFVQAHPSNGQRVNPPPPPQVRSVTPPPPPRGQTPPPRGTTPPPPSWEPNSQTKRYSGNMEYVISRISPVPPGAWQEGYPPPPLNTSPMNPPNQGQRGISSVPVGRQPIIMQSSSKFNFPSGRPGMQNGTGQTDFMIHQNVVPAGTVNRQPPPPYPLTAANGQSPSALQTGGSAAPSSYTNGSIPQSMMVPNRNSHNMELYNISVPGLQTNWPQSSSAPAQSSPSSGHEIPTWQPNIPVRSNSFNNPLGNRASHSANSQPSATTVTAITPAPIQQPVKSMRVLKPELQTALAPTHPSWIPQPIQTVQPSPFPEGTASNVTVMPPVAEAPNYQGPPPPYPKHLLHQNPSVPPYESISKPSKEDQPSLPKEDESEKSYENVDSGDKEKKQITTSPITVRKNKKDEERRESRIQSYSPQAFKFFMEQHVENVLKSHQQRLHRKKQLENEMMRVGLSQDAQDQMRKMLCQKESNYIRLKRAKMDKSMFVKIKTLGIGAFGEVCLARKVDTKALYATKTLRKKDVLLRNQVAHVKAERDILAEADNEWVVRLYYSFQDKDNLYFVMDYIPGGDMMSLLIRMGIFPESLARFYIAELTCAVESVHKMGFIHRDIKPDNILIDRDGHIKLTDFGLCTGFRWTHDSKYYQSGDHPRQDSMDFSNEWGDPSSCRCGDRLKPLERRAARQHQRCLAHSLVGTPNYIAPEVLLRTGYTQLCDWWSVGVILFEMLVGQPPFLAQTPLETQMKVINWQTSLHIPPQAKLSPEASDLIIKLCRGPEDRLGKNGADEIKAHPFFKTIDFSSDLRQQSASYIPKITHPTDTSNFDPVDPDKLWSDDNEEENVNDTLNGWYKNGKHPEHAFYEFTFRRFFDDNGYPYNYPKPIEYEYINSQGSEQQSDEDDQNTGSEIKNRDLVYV

PRKX = biological target: T5, PRKX (Homo sapiens, UniProt P51817); experiment: Kinobeads full dose-response competition binding: PRKX; conditions: Gene Name PRKX; for Relative Intensity 0.3nM: 0.3nM compound; for Relative Intensity 0.3nM / Relative Intensity 1nM / Relative Intensity 3nM / Relative Intensity 10nM / Relative Intensity 30nM / Relative Intensity 100nM / Relative Intensity 300nM / Relative Intensity 1000nM: DMSO = 1; for Relative Intensity 1nM: 1nM compound; for Relative Intensity 3nM: 3nM compound; for Relative Intensity 10nM: 10nM compound; for Relative Intensity 30nM: 30nM compound; for Relative Intensity 100nM: 100nM compound; for Relative Intensity 300nM: 300nM compound; for Relative Intensity 1000nM: 1000nM compound; for Kd: EC50 with Correction, read-out: apparent Kd; for Kd / EC50: doses in nM; for EC50: eight-dose curve fit
T5 construct: endogenous in cells
T5 sequence (P51817 1-358): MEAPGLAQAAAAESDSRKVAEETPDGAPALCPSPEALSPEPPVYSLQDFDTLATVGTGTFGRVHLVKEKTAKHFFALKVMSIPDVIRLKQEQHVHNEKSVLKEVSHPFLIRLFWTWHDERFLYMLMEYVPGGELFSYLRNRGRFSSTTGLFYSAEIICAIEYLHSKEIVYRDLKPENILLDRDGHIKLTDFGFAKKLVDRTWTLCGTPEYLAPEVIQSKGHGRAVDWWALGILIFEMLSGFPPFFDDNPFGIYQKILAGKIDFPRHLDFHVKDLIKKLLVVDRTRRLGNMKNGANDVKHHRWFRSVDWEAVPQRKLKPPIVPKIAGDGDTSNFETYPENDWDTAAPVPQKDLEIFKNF

With CCn1c(-c2nonc2N)nc2c(C#CC(C)(C)O)nc(OCCNC)cc21 [GSK949675A] the “Relative Intensity 0.3nM” value (PAK4) was 1.024, the “Relative Intensity 1nM” value (PAK4) was 1.092 and the “Relative Intensity 3nM” value (PAK4) was 1.039. The “Relative Intensity 10nM” value (PAK4) was 0.9797, the “Relative Intensity 30nM” value (PAK4) was 0.9918 and the “Relative Intensity 100nM” value (PAK4) was 0.907. For the same molecule, the “Relative Intensity 300nM” value (PAK4) was 0.6926, the “Relative Intensity 1000nM” value (PAK4) was 0.4818 and the Kd (PAK4; EC50 with Correction, doses in nM, read-out: apparent Kd) was 218 nM. The EC50 (PAK4; eight-dose curve fit, doses in nM) was 316 nM, the “Relative Intensity 0.3nM” value (GSK3A) was 1.008 and the “Relative Intensity 1nM” value (GSK3A) was 1.091. For the same molecule, the “Relative Intensity 3nM” value (GSK3A) was 1.095, the “Relative Intensity 10nM” value (GSK3A) was 0.9753 and the “Relative Intensity 30nM” value (GSK3A) was 1.009. For the same molecule, the “Relative Intensity 100nM” value (GSK3A) was 0.7508, the “Relative Intensity 300nM” value (GSK3A) was 0.4472 and the “Relative Intensity 1000nM” value (GSK3A) was 0.237. For the same molecule, the Kd (GSK3A) was 104 nM, the EC50 (GSK3A) was 167 nM and the “Relative Intensity 0.3nM” value (GSK3B) was 0.987. For the same molecule, the “Relative Intensity 1nM” value (GSK3B) was 0.9621, the “Relative Intensity 3nM” value (GSK3B) was 1.1 and the “Relative Intensity 10nM” value (GSK3B) was 0.9042. For the same molecule, the “Relative Intensity 30nM” value (GSK3B) was 0.9241, the “Relative Intensity 100nM” value (GSK3B) was 0.7846 and the “Relative Intensity 300nM” value (GSK3B) was 0.5456. For the same molecule, the “Relative Intensity 1000nM” value (GSK3B) was 0.3036, the Kd (GSK3B) was 171 nM and the EC50 (GSK3B) was 322 nM. For the same molecule, the “Relative Intensity 0.3nM” value (LATS1) was 1.0287, the “Relative Intensity 1nM” value (LATS1) was 1.07 and the “Relative Intensity 3nM” value (LATS1) was 1.096. For the same molecule, the “Relative Intensity 10nM” value (LATS1) was 1.105, the “Relative Intensity 30nM” value (LATS1) was 1.087 and the “Relative Intensity 100nM” value (LATS1) was 0.897. The “Relative Intensity 300nM” value (LATS1) was 0.6219, the “Relative Intensity 1000nM” value (LATS1) was 0.3635 and the Kd (LATS1) was 238 nM. For the same molecule, the EC50 (LATS1) was 238 nM, the “Relative Intensity 0.3nM” value (PRKX) was 1.295 and the “Relative Intensity 1nM” value (PRKX) was 1.2278. For the same molecule, the “Relative Intensity 3nM” value (PRKX) was 1.244, the “Relative Intensity 10nM” value (PRKX) was 1.16 and the “Relative Intensity 30nM” value (PRKX) was 1.169. For the same molecule, the “Relative Intensity 100nM” value (PRKX) was 0.9393, the “Relative Intensity 300nM” value (PRKX) was 0.5982 and the “Relative Intensity 1000nM” value (PRKX) was 0.3002. It also gave a Kd (PRKX) of 221 nM and an EC50 (PRKX) of 221 nM.

With CCn1c(-c2nonc2N)nc2c(C#CC(C)(C)O)nc(OCCN)cc21 [GSK902056A] the “Relative Intensity 0.3nM” value (PAK4) was 1.05, the “Relative Intensity 1nM” value (PAK4) was 1.027 and the “Relative Intensity 3nM” value (PAK4) was 1.044. The “Relative Intensity 10nM” value (PAK4) was 0.9586, the “Relative Intensity 30nM” value (PAK4) was 0.8645 and the “Relative Intensity 100nM” value (PAK4) was 0.8782. For the same molecule, the “Relative Intensity 300nM” value (PAK4) was 0.7175, the “Relative Intensity 1000nM” value (PAK4) was 0.4475 and the “Relative Intensity 0.3nM” value (GSK3A) was 0.9894. For the same molecule, the “Relative Intensity 1nM” value (GSK3A) was 1.046, the “Relative Intensity 3nM” value (GSK3A) was 1.057 and the “Relative Intensity 10nM” value (GSK3A) was 0.9554. For the same molecule, the “Relative Intensity 30nM” value (GSK3A) was 0.7994, the “Relative Intensity 100nM” value (GSK3A) was 0.6557 and the “Relative Intensity 300nM” value (GSK3A) was 0.3972. The “Relative Intensity 1000nM” value (GSK3A) was 0.1852, the Kd (GSK3A) was 164 nM and the EC50 (GSK3A) was 173 nM. The “Relative Intensity 0.3nM” value (GSK3B) was 1.05, the “Relative Intensity 1nM” value (GSK3B) was 1.092 and the “Relative Intensity 3nM” value (GSK3B) was 1.084. For the same molecule, the “Relative Intensity 10nM” value (GSK3B) was 0.9805, the “Relative Intensity 30nM” value (GSK3B) was 0.9007 and the “Relative Intensity 100nM” value (GSK3B) was 0.8389. The “Relative Intensity 300nM” value (GSK3B) was 0.5163, the “Relative Intensity 1000nM” value (GSK3B) was 0.2905 and the Kd (GSK3B) was 288 nM. The EC50 (GSK3B) was 296 nM, the “Relative Intensity 0.3nM” value (LATS1) was 0.9708 and the “Relative Intensity 1nM” value (LATS1) was 1.022. For the same molecule, the “Relative Intensity 3nM” value (LATS1) was 1.017, the “Relative Intensity 10nM” value (LATS1) was 1.027 and the “Relative Intensity 30nM” value (LATS1) was 0.7859. The “Relative Intensity 100nM” value (LATS1) was 0.4584, the “Relative Intensity 300nM” value (LATS1) was 0.1984 and the “Relative Intensity 1000nM” value (LATS1) was 0.02738. For the same molecule, the Kd (LATS1) was 87.4 nM, the EC50 (LATS1) was 87.4 nM and the “Relative Intensity 0.3nM” value (PRKX) was 0.9197. For the same molecule, the “Relative Intensity 1nM” value (PRKX) was 0.9321, the “Relative Intensity 3nM” value (PRKX) was 1.015 and the “Relative Intensity 10nM” value (PRKX) was 0.9379. For the same molecule, the “Relative Intensity 30nM” value (PRKX) was 0.8892, the “Relative Intensity 100nM” value (PRKX) was 0.6426 and the “Relative Intensity 300nM” value (PRKX) was 0.2553. The “Relative Intensity 1000nM” value (PRKX) was 0.1464, the Kd (PRKX) was 127 nM and the EC50 (PRKX) was 127 nM.
